For three compounds, mortality results are on record in US20120035135A1, “Treatment of Transgenic Crops with Mixtures of Fiproles and Chloronicotinyls” (Bayer CropScience AG, priority 2008, published 2012).

Assay type in all cases: in vivo
In assay [1] the test system is Spodoptera frugiperda. The experiment in a line: Spodoptera frugiperda test (drench application) on transgenic corn. The settings on record: soil, 96 h, after 4 d. The text has this: (§1) The expected activity for a given combination of two (or more) active compounds can be calculated (cf. COLBY, S. R.; “Calculating Synergistic and Antagonistic Responses of Herbicide Combinations”, Weeds 15, pages 20-22, 1967):′
(§2) If • X=the kill rate, expressed in % of the untreated control, when employing active compound A at an application rate of m ppm or m g/ha, • Y=the kill rate, expressed in % of the untreated control, when employing active compound B at an application rate of n ppm or n g/ha, • Z=the kill rate, expressed in % of the untreated control, when employing active compound C at an application rate of r ppm or r g/ha, • E=the kill rate, expressed in % of the untreated control, when employing active compounds A and B and C at application rates of m, n, and r ppm or m, n, and r g/ha, then for a combination of two ore more components
(§3) If the actual insecticidal kill rate is higher than the calculated one, the kill rates of the combination are super additive, i.e. a synergistic effect is present. In this case, the kill rate that is actually observed has to be higher than the value, calculated using the formula above, for the expected kill rate (E). […]
(§4) After the specified period of time, the mortality in % is determined. […]

Assay [2] relates to Spodoptera exigua. Briefly: Spodoptera exigua test (leaf application) on transgenic corn. The settings on record: 96 h, after 4 d.
Source text: as §1, §2
(§5) If the actual insecticidal kill rate is higher than the calculated one, the kill rates of the combination are super additive, i.e. a synergistic effect is present. In this case, the kill rate that is actually observed has to be higher than the value, calculated using the formula above, for the expected kill rate (E).
Transgenic corn plants containing lepidoptera, coleoptera and/or herbicide resistance were treated with the respective products against the beet army worm (Spodoptera exigua).
(§6) After the specified period of time, the mortality in % is determined. 100% means that all the caterpillars have been killed; 0% means that none of the caterpillars have been killed.

The test system of assay [3] is Spodoptera frugiperda. The experiment in a line: Spodoptera frugiperda test (leaf application) on transgenic corn. The settings on record: 96 h, after 4 d.
Source text: as §1, §2, §3, §4

For assay [4], the system named is Spodoptera frugiperda. Briefly: Spodoptera frugiperda test (leaf application) on transgenic cotton. The settings on record: 24 h, after 1 d.
Source text: as §1, §2, §5
Transgenic cotton plants containing lepidoptera and herbicide resistance were treated with the respective products against the fall army worm (Spodoptera frugiperda).
as §6

Turning to `O=[N+]([O-])NC1=NCCN1Cc1ccc(Cl)nc1` [Imidacloprid, imidacloprid], the mortality at 100 ppm in assay [1] (100 ppm) is 0%; in assay [2] (100 ppm), 10%; in assay [3] (100 ppm) it was 15%; in assay [4] (100 ppm) it was 50%. In assay [2] (20 ppm), the mortality at 20 ppm amounted to 0%.

Turning to `CC[S+]([O-])c1c(C#N)nn(-c2c(Cl)cc(C(F)(F)F)cc2Cl)c1N` (stereo not shown) [Ethiprole, ethiprole], the mortality at 20 ppm in assay [4] is 0%.

`N#Cc1nn(-c2c(Cl)cc(C(F)(F)F)cc2Cl)c(N)c1[S+]([O-])C(F)(F)F` (stereo not shown) [Fipronil, fipronil]: the mortality at 20 ppm in assay [1] (20 ppm) and in assay [4] was 0% each time. The figures for the mortality at 4 ppm in assay [2] (4 ppm) and in assay [3] (4 ppm) were 0% and 15%, respectively.
